Experimental data: patent publication US6897306B2, “3-heterocyclylpropanohydroxamic acids” (Pfizer Products, Inc., priority 1999, dated 2005)
Like-named read-outs stand apart in the source and are kept apart here. Where a SMILES comes first, the peptide text is derived from it. [ ]: non-standard residue; d: D form. The star is where a group is joined. Sta = CC(C)C[C@H](N)[C@@H](O)CC(=O)O; Isovaleryl = CC(C)CC(=O)*

Experiments:
PCP = conditions: cited from earlier work
[1] = Dynamic Vapour Sorption (moisture sorption); assay type: physicochemical
Protocol: Melting points were determined using open glass capillary tubes and a Gallenkamp melting point apparatus and are uncorrected. Nuclear magnetic resonance (NMR) data were obtained using Varian Unity Inova-400, Varian Unity Inova-300 or Bruker AC300 spectrometers and are quoted in parts per million from tetramethylsilane. Mass spectral (MS) data were obtained on a Finnigan Mat. TSQ 7000 or a Fisons Instruments Trio 1000. The calculated and observed ions quoted refer to the isotopic composition of lowest mass. Infra red (1R) spectra were measured using a Nicolet Magna 550 Fourier transform infra-red spectrometer. Flash chromatography refers to column chromatography on silica gel (Kieselgel 60, 230-400 mesh, from E. Merck, Darmstadt. Kieselgel 60 F254 plates from E. Merck were used for TLC, and compounds were visualised using UV light, 5% aqueous potassium permanagate or Dragendorff's reagent (oversprayed with aqueous sodium nitrite). Thermal analyses by Differential Scanning Calorimetry (DSC) and ThermoGravimetric Analysis (TGA) were obtained using Perkin Elmer DSC7 and TGA7. Moisture sorption characteristics were recorded using Surface Measurement Systems Ltd. Automated Water Sorption Analyser DVS 1. Water content was determined on a Mitsubishi CA100 (Coulometric Karl Fisher Titrator). Powder X-ray diffraction (PXRD) pattern was determined using a Siemens D5000 powder X-ray diffractometer fitted with an automatic sample changer, a theta-theta goniometer, automatic beam divergence slits, a secondary monochromator and a scintillation counter. Other measurements were taken using standard equipment. Hexane refers to a mixture of hexanes (hplc grade) b.p. 65-70° C. Ether refers to diethyl ether. Acetic acid refers to glacial acetic acid. 1-Hydroxy-7-aza-1H-1,2,3-benzotriazole (HOAt), N-[(dimethylamino)-1H-1,2,3-triazolo[4,5-b]pyridin-1-ylmethylene]-N-methylmethaninium hexafluorophosphate N-oxide (HATU) and 7-azabenzotriazol-1-yloxytris(pyrrolidino)phosphonium hexafluorophosphate (PyAOP) were purchased from PerSeptive Biosystems U.K. Ltd. “DIPE” refers to diisopropyl ether. Reverse-phase silica gel for flash chromatography was obtained from Fluka (Fluka 100, C18, 40-63μ). Pentane refers to High Performance Liquid Chromatography (HPLC) grade n-pentane (b.pt.35-37° C.). Nomenclature has been allocated using a program available from IUPAC. Standard abbreviations are used throughout, e.g. “Me” is methyl, “Et” is ethyl, “Pr” is propyl, “Ph” is phenyl, etc. It was noticed that during certain repetitions of the methods disclosed in the Examples and Preparations that some racemisation appeared to have taken place. It was found in some cases that specific desired enantiomers can be separated from mixtures thereof by routine methods such as by differential crystallisation. • ^aHPLC autopurification performed using 2 columns—Phenomonex LUNA C8 150×21.2 mm, 10 μm and Phenomonex […] C18 150×21.2 mm, […], eluting with a gradient system of organic solvent [ammonium acetate (aq) 100 mM:acetonitrile (1:9)]:aqueous solvent [ammonium acetate (aq) 100 mM:acetonitrile (9:1)] • ^bHPLC autopurification performed using 2 columns—Phenomonex LUNA C8 150×21.2 mm, 10 μm and Phenomonex […] C18 150×21.2 mm, 5 μm, eluting with a gradient system of organic solvent (acetonitrile):aqueous solvent (0.1% aqueous trifluoroacetic acid)

Row | Molecule | PCP inhibition (in words) (PCP; literature reports) | other results
1 | O[C@H](CS)[C@H](O)CS (racemic) [Dithiothreitol] | inhibitory at low concentrations | 
2 | [Cd+2] [Cd^2+] | inhibitory at low concentrations | 
3 | [Cu+2] [Cu^2+] | inhibitory at low concentrations | 
4 | NC(=O)c1noc([C@H](CCCC2CCCCC2)CC(=O)NO)n1 [Example 2(b), 5-{(1R)-4-Cyclohexyl-1-[2-(hydroxyamino)-2-oxoethyl]butyl}-1,2,4-oxadiazole-3-carboxamide Monohydrate] |  | Dynamic Vapour Sorption ([1]; 2% RH (30° C.)): 4.84 % w/w; Dynamic Vapour Sorption ([1]; 20% RH (30° C.)): 5.17 % w/w; Dynamic Vapour Sorption ([1]; below 1% RH (30° C.)): significant dehydration
5 | NC(=O)c1noc([C@H](CCCC2CCCCC2)CC(=O)NO)n1 [Example 2(c), 5-{(1R)-4-Cyclohexyl-1-[2-(hydroxyamino)-2-oxoethyl]butyl}-1,2,4-oxadiazole-3-carboxamide (Anhydrous)] |  | Dynamic Vapour Sorption ([1]; 15% RH (30° C.)): 0.18 % w/w; Dynamic Vapour Sorption ([1]; 30% RH (30° C.)): 0.23 % w/w; Dynamic Vapour Sorption, hydration behaviour ([1]; 60% RH (30° C.), converting to the monohydrate (XRD)): hydrates slowly; Dynamic Vapour Sorption, equilibrium ([1]; 90% RH (30° C.)): 5.3 % w/w
6 | O=C(C[C@@H](CCCC1CCCCC1)c1nc(C(=O)NCc2ccccn2)no1)NO [Example 10, 5-{(1R)-4-Cyclohexyl-1-[2-(hydroxyamino)-2-oxoethyl]butyl}-N-(2-pyridinylmethyl) -1,2,4-oxadiazole-3-carboxamide] |  | melting point: 128 to 130 °C
7 | O=C(O)CNC(=O)c1noc([C@H](CCCC2CCCCC2)CC(=O)NO)n1 [Example 11, 2-{[(5-{(1R)-4-Cyclohexyl-1-[2-(hydroxyamino)-2-oxoethyl]butyl}-1,2,4-oxadiazol-3-yl)carbonyl]amino}acetic Acid] |  | melting point: 141 to 142 °C
8 | CCCCCCCCCCCCOS(=O)(=O)[O-].[Na+] [SDS] | inhibitory at low concentrations | 
9 | [Zn+2] [Zn^2+] | inhibitory at low concentrations | 
10 | N=C(N)NCCC[C@H](N)C(=O)O [arginine] | inhibited | 
11 | CC(C)C[C@H](NC(=O)[C@@H](NC(=O)N[C@@H](Cc1ccccc1)C(=O)O)[C@@H]1CCN=C(N)N1)C(=O)N[C@H](C=O)Cc1ccccc1 [chymostatin] | relatively strong inhibitors | 
12 | NCCCC[C@H](N)C(=O)O [lysine] | inhibited | 
13 | CC(C)CC(=O)N[C@H](C(=O)N[C@H](C(=O)N[C@@H](CC(C)C)[C@@H](O)CC(=O)N[C@@H](C)C(=O)N[C@@H](CC(C)C)[C@@H](O)CC(=O)O)C(C)C)C(C)C [pepstatin A] (Isovaleryl-VV[Sta]A[Sta]-OH) | relatively strong inhibitors | 
14 | Tris-HCl [Tris-HCl buffer] |  | PCP inhibition (in words) (PCP; buffer concentration 0.2-0.5M): markedly inhibited activity
15 | concanavalin A | inhibitory at low concentrations | 
16 | α2-Macroglobuline: protein reported to at least partially inhibit PCP activity (protein, UniProt P01023 24-1474, looked up) Alpha-2-macroglobulin: SVSGKPQYMVLVPSLLHTETTEKGCVLLSYLNETVTVSASLESVRGNRSLFTDLEAENDVLHCVAFAVPKSSSNEEVMFLTVQVKGPTQEFKKRTTVMVKNEDSLVFVQTDKSIYKPGQTVKFRVVSMDENFHPLNELIPLVYIQDPKGNRIAQWQSFQLEGGLKQFSFPLSSEPFQGSYKVVVQKKSGGRTEHPFTVEEFVLPKFEVQVTVPKIITILEEEMNVSVCGLYTYGKPVPGHVTVSICRKYSDASDCHGEDSQAFCEKFSGQLNSHGCFYQQVKTKVFQLKRKEYEMKLHTEAQIQEEGTVVELTGRQSSEITRTITKLSFVKVDSHFRQGIPFFGQVRLVDGKGVPIPNKVIFIRGNEANYYSNATTDEHGLVQFSINTTNVMGTSLTVRVNYKDRSPCYGYQWVSEEHEEAHHTAYLVFSPSKSFVHLEPMSHELPCGHTQTVQAHYILNGGTLLGLKKLSFYYLIMAKGGIVRTGTHGLLVKQEDMKGHFSISIPVKSDIAPVARLLIYAVLPTGDVIGDSAKYDVENCLANKVDLSFSPSQSLPASHAHLRVTAAPQSVCALRAVDQSVLLMKPDAELSASSVYNLLPEKDLTGFPGPLNDQDNEDCINRHNVYINGITYTPVSSTNEKDMYSFLEDMGLKAFTNSKIRKPKMCPQLQQYEMHGPEGLRVGFYESDVMGRGHARLVHVEEPHTETVRKYFPETWIWDLVVVNSAGVAEVGVTVPDTITEWKAGAFCLSEDAGLGISSTASLRAFQPFFVELTMPYSVIRGEAFTLKATVLNYLPKCIRVSVQLEASPAFLAVPVEKEQAPHCICANGRQTVSWAVTPKSLGNVNFTVSAEALESQELCGTEVPSVPEHGRKDTVIKPLLVEPEGLEKETTFNSLLCPSGGEVSEELSLKLPPNVVEESARASVSVLGDILGSAMQNTQNLLQMPYGCGEQNMVLFAPNIYVLDYLNETQQLTPEIKSKAIGYLNTGYQRQLNYKHYDGSYSTFGERYGRNQGNTWLTAFVLKTFAQARAYIFIDEAHITQALIWLSQRQKDNGCFRSSGSLLNNAIKGGVEDEVTLSAYITIALLEIPLTVTHPVVRNALFCLESAWKTAQEGDHGSHVYTKALLAYAFALAGNQDKRKEVLKSLNEEAVKKDNSVHWERPQKPKAPVGHFYEPQAPSAEVEMTSYVLLAYLTAQPAPTSEDLTSATNIVKWITKQQNAQGGFSSTQDTVVALHALSKYGAATFTRTGKAAQVTIQSSGTFSSKFQVDNNNRLLLQQVSLPELPGEYSMKVTGEGCVYLQTSLKYNILPEKEEFPFALGVQTLPQTCDEPKAHTSFQISLSVSYTGSRSASNMAIVDVKMVSGFIPLKPTVKMLERSNHVSRTEVSSNHVLIYLDKVSNQTLSLFFTVLQDVPVRDLKPAIVKVYDYYETDEFAIAEYNAPCSKDLGNA | at least partially inhibit | 
17 | ovostatin: protein reported to at least partially inhibit PCP activity (protein, UniProt P20740 37-1473, looked up) Ovostatin: KEPEPQYVLMVPAVLQSDSPSQVCLQFFNLNQTISVRVVLEYDTINTTIFEKNTTTSNGLQCLNFMIPPVTSVSLAFISFTAKGTTFDLKERRSVMIWNMESFVFVQTDKPIYKPGQSVMFRVVALDFNFKPVQEMYPLIAVQDPQNNRIFQWQNVTSEINIVQIEFPLTEEPILGNYKIIVTKKSGERTSHSFLVEEYVLPKFDVTVTAPGSLTVMDSELTVKICAVYTYGQPVEGKVQLSVCRDFDSYGRCKKSPVCQSFTKDLDTDGCLSHILSSKVFELNRIGYKRNLDVKAIVTEKEQVCNLTATQSISITQVMSSLQFENVDHHYRRGIPYFGQIKLVDKDNSPISNKVIQLFVNNKNTHNFTTDINGIAPFSIDTSKIFDPELSLKALYKTSDQCHSEGWIEPSYPDASLSVQRLYSWTSSFVRIEPLWKDMSCGQKRMITVYYILNTEGYEHINIVNFYYVGMAKGKIVLTGEIKVNIQADQNGTFMIPLVVNEKMAPALRLLVYMLHPAKELVADSVRFSIEKCFKNKVQLQFSEKQMLTTSNVSLVIEAAANSFCAVRAVDKSMLLLKSETELSAETIYNLHPIQDLQGYIFNGLNLEDDPQDPCVSSDDIFHKGLYYRPLTSGLGPDVYQFLRDMGMKFFTNSKIRQPTVCTRETVRPPSYFLNAGFTASTHHVKLSAEVAREERGKRHILETIREFFPETWIWDIILINSTGKASVSYTIPDTITEWKASAFCVEELAGFGMSVPATLTAFQPFFVDLTLPYSIIHGEDFLVRANVFNYLNHCIKINVLLLESLDYQAKLISPEDDGCVCAKIRKSYVWNIFPKGTGDVLFSITAETNDDEACEEEALRNIRIDYRDTQIRALLVEPEGIRREETQNFLICMKDDVISQDVAIDLPTNVVEGSPRPSFSVVGDIMGTAIQNVHQLLQMPFGNGEQNMVLFAPNIYVLDYLDKTRQLSEDVKSKTIGYLVSGYQKQLSYKHPDGSYSTFGIRDKEGNTWLTAFVYKSFAEASRFIYIDDNVQAQTLIWLATKQKTDGCFQSTGILVNNAMKGGVENELSLSAYITIALLEAGHSMSHTVIRNAFYCLETASEKNITDIYTQALVAYAFCLAGKAEICESFLRELQKSAKEVDGSKYWEQNQRSAPEKSHLLDHVQSTDVEITSYVLLALLYKPNRSQEDLTKASAIVQWIIRQQNSYGGFASMQDTVVALQALAAYGAATYNSVTQNVIKINSKNTFEKVFTVNNENRLLLQQTPLPQVPGKYSLTVNGTGCVLIQTALRYNIHLPEGAFGFSLSVQTSNASCPRDQPGKFDIVLISSYTGKRSSSNMVIIDVKMLSGFVPVKSSLDQLIDDHTVMQVEYKKNHVLLYLGNILQKRRKEVTFSVEQDFVVTHPKPAPVQIYDYYETEEYAVAEYMSLCRGVVEEMG | at least partially inhibit | 
